Source: patent publication US4115385A, “Antibacterial 3-(5-tetrazolyl) penam compounds” (Pfizer Inc., priority 1977, dated 1978)
Values after ≈ are worked out from the molar mass of the structure shown. Read-outs that look alike come from different tables or passages of the source.

System: Streptococcus pyogenes
Assay: In vitro minimum inhibitory concentration (MIC) vs. Strep. pyogenes
Format: cell-based
Conditions: Streptococcus pyogenes, read-out: MIC vs. Strep. pyogenes
Procedure, shortened: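 Broth inoculated with bacteria and test antibiotic, incubated overnight and read visually; MIC is the lowest concentration preventing turbidity. Test preparations also contain some of the corresponding tetrazole tautomer.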

[1] = Table II, two-fold serial dilution, Brain-Heart Infusion broth, overnight

SMILES | MIC | MIC [1]
CC1(C)S[C@@H]2[C@H](NC(=O)[C@H](NC(=O)CCl)c3ccccc3)C(=O)N2[C@H]1c1nn[nH]n1 [D-2-(2-chloroacetamido)-2-phenylacetyl, 6-(D-2-[2-Chloroacetamido]-2-phenylacetamido)-2,2-dimethyl-3-(5-tetrazolyl)penam] | < 0.1 µg/mL | 
CC1(C)S[C@@H]2[C@H](NC(=O)[C@H](NC(=O)Nc3ccc(Cl)cc3)c3ccccc3)C(=O)N2[C@H]1c1nnn[nH]1 | < 0.1 µg/mL | 
CCCC(=O)N[C@@H](C(=O)N[C@@H]1C(=O)N2[C@@H]1SC(C)(C)[C@@H]2c1nnn[nH]1)c1ccccc1 [D-2-(butyramido)-2-phenylacetyl] |  | 0.39 µg/mL (≈ 0.879 µM)
CC1(C)S[C@@H]2[C@H](NC(=O)Cc3ccc(CN)cc3)C(=O)N2[C@H]1c1nnn[nH]1 [2-(4-aminomethylphenyl)acetyl, 6-(2-[4-Aminomethylphenyl]acetamido)-2,2-dimethyl-3-(5-tetrazolyl)penam] | < 0.1 µg/mL | 
Cc1cc(C(=O)NC(=O)N[C@@H](C(=O)N[C@@H]2C(=O)N3[C@@H]2SC(C)(C)[C@@H]3c2nn[nH]n2)c2ccccc2)on1 | < 0.1 µg/mL | 
CC1(C)S[C@@H]2[C@H](NC(=O)[C@H](NS(=O)(=O)O)c3ccccc3)C(=O)N2[C@H]1c1nnn[nH]1 [D-2-sulfoamino-2-phenylacetyl, 6-(D-2-sulfoamino-2-phenylacetamido)-2,2-dimethyl-3-(5-tetrazolyl)penam] |  | 12.5 µg/mL (≈ 27.6 µM)
CC1(C)S[C@@H]2[C@H](NC(=O)[C@H](NC(=O)C(=Cc3cccs3)C(=O)O)c3ccccc3)C(=O)N2[C@H]1c1nnn[nH]1 [6-(D-2-[2-carboxy-3-(2-thienyl)acrylamido]-2-phenylacetamido)-2,2-dimethyl-3-(5-tetrazolyl)penam] | < 0.1 µg/mL | 
CC1(C)S[C@@H]2[C@H](NC(=O)[C@H](NC(=O)Cc3ccco3)c3ccccc3)C(=O)N2[C@H]1c1nnn[nH]1 | < 0.1 µg/mL | 
CC1(C)S[C@@H]2[C@H](NC(=O)C(C(=O)O)c3cccs3)C(=O)N2[C@H]1c1nnn[nH]1 (some centres unmarked) [2-carboxy-2-(2-thienyl)acetyl, 6-(2-Carboxy-2-[2-thienyl]acetamido)-2,2-dimethyl-3-(5-tetrazolyl)penam] | 0.1 µg/mL (≈ 0.245 µM) | 
CC1(C)S[C@@H]2[C@H](NC(=O)[C@H](NC(=S)NC(=O)c3ccccc3)c3ccccc3)C(=O)N2[C@H]1c1nn[nH]n1 [2-(3-benzoylthioureido)-2-phenylacetyl] |  | 1.56 µg/mL (≈ 2.91 µM)
CC1(C)S[C@@H]2[C@H](NC(=O)[C@H](NC(=O)c3ccc([N+](=O)[O-])cc3)c3ccccc3)C(=O)N2[C@H]1c1nn[nH]n1 [D-2-(4-nitrobenzamido)-2-phenylacetyl, 6-(D-2-[4-nitrobenzamido]-2-phenylacetamido)-2,2-dimethyl-3-(5-tetrazolyl)penam] |  | 0.004 µg/mL (≈ 0.00765 µM)
CC1(C)S[C@@H]2[C@H](NC(=O)CSc3ccncc3)C(=O)N2[C@H]1c1nnn[nH]1 [2-(4-pyridylthio)acetyl, 6-(2-[4-Pyridylthio]acetamido)-2,2-dimethyl-3-(5-tetrazolyl)penam] | < 0.1 µg/mL | 
CC1(C)S[C@@H]2[C@H](NC(=O)[C@H](NC(=O)CNS(=O)(=O)Cc3ccccc3)c3ccccc3)C(=O)N2[C@H]1c1nn[nH]n1 | < 0.1 µg/mL | 
CC1(C)S[C@@H]2[C@H](NC(=O)[C@H](NC(=O)NC(=O)c3ccncc3)c3ccccc3)C(=O)N2[C@H]1c1nn[nH]n1 |  | 0.2 µg/mL (≈ 0.383 µM)
CC1(C)S[C@@H]2[C@H](NC(=O)[C@H](NC(=O)CNC(=N)c3ccncc3)c3ccccc3)C(=O)N2[C@H]1c1nnn[nH]1 [6-(D-2-[2-(4-pyridinecarboxamidino)acetamido]-2-phenylacetamido)-2,2-dimethyl-3-(5-tetrazolyl)penam] | < 0.1 µg/mL | 
CC1(C)S[C@@H]2[C@H](NC(=O)C(NC(=O)CBr)c3ccccc3)C(=O)N2[C@H]1c1nn[nH]n1 (some centres unmarked) [2-(2-bromoacetamido)-2-phenylacetyl, 6-(2-[2-bromoacetamido]-2-phenylacetamido)-2,2-dimethyl-3-(5-tetrazolyl)penam] | < 0.1 µg/mL | 

SMILES | MIC | MIC [1]
CC1(C)S[C@@H]2[C@H](NC(=O)C(N)c3cccnc3)C(=O)N2[C@H]1c1nnn[nH]1 (mixture of isomers) [DL-2-amino-2-(3-pyridyl)acetyl] | < 0.1 µg/mL | 
CC1(C)S[C@@H]2[C@H](NC(=O)[C@H](NC(=O)NC(=O)Cc3ccccc3)c3ccccc3)C(=O)N2[C@H]1c1nn[nH]n1 | < 0.1 µg/mL | 
CC1(C)S[C@@H]2[C@H](NC(=O)[C@H](NC(=O)c3ccncc3)c3ccccc3)C(=O)N2[C@H]1c1nnn[nH]1 |  | 3.12 µg/mL (≈ 6.52 µM)
CC1(C)S[C@@H]2[C@H](NC(=O)[C@H](NC(=O)NC(=N)N)c3ccc(O)cc3)C(=O)N2[C@H]1c1nnn[nH]1 [6-(D-2-[3-guanylureido]-2-[4-hydroxyphenyl]acetamido)-2,2-dimethyl-3-(5-tetrazolyl)-penam] |  | 0.004 µg/mL (≈ 0.00843 µM)
CC1(C)S[C@@H]2[C@H](NC(=O)[C@H](NC(=O)C(=O)c3ccccc3)c3ccccc3)C(=O)N2[C@H]1c1nnn[nH]1 [D-2-(benzoylformamido)-2-phenylacetyl] |  | 25 µg/mL (≈ 49.5 µM)
CC1(C)S[C@@H]2[C@H](NC(=O)[C@H](NC(=O)Cc3ccc(NC(=N)N)cc3)c3ccccc3)C(=O)N2[C@H]1c1nn[nH]n1 |  | 1.56 µg/mL (≈ 2.84 µM)
CC1(C)S[C@@H]2[C@H](NC(=O)[C@H](NC(=O)CNC(=O)c3ccc(Cl)cc3)c3ccccc3)C(=O)N2[C@H]1c1nnn[nH]1 | 0.1 µg/mL (≈ 0.176 µM) | 
CC1(C)S[C@@H]2[C@H](NC(=O)CSc3ccccc3CN)C(=O)N2[C@H]1c1nnn[nH]1 [2-(2-[aminomethyl]phenylthio)acetyl] |  | 1.56 µg/mL (≈ 3.72 µM)
CC1(C)S[C@@H]2[C@H](NC(=O)[C@H](NC(=O)CN)c3ccc(O)cc3)C(=O)N2[C@H]1c1nnn[nH]1 [6-(D-2-[2-aminoacetamido]-2-[4-hydroxyphenyl]acetamido)-2,2-dimethyl-3-(5-tetrazolyl)penam] | < 0.1 µg/mL | 
CC1(C)S[C@@H]2[C@H](NC(=O)[C@H](NS(=O)(=O)c3ccccc3)c3ccc(O)cc3)C(=O)N2[C@H]1c1nn[nH]n1 [6-(D-2-[Benzenesulfonamido]-2-[p-hydroxyphenyl]acetamido)-2,2-dimethyl-3-(5-tetrazolyl)penam] | < 0.1 µg/mL | 
CC1(C)S[C@@H]2[C@H](NC(=O)[C@H](NC(=O)COc3ccccc3)c3ccccc3)C(=O)N2[C@H]1c1nnn[nH]1 [D-2-(2-phenoxyacetamido)-2-phenylacetyl] |  | 0.004 µg/mL (≈ 0.00788 µM)
CC1(C)S[C@@H]2[C@H](NC(=O)[C@H](NC(=O)CCNC(=N)c3cccs3)c3ccccc3)C(=O)N2[C@H]1c1nnn[nH]1 | < 0.1 µg/mL | 
CC1(C)S[C@@H]2[C@H](NC(=O)[C@H](NS(=O)(=O)c3ccc4ccccc4c3)c3ccccc3)C(=O)N2[C@H]1c1nn[nH]n1 |  | 0.2 µg/mL (≈ 0.355 µM)
CC1(C)S[C@@H]2[C@H](NC(=O)[C@H](NC(=O)CNC(=N)c3ccccc3)c3ccccc3)C(=O)N2[C@H]1c1nnn[nH]1 [6-(D-2-[2-(Benzamidino)acetamido]-2-phenylacetamido)-2,2-dimethyl-3-(5-tetrazolyl)penam] | < 0.1 µg/mL | 
CC1(C)S[C@@H]2[C@H](NC(=O)[C@H](NC(=O)c3ccc(N)cc3)c3ccccc3)C(=O)N2[C@H]1c1nn[nH]n1 [D-2-(4-aminobenzamido)-2-phenylacetyl, 6-(D-2-[4-Aminobenzamido]-2-phenylacetamido)-2,2-dimethyl-3-(5-tetrazolyl)penam] | < 0.1 µg/mL | 
CCOC(=O)CC(=O)N[C@@H]1C(=O)N2[C@@H]1SC(C)(C)[C@@H]2c1nnn[nH]1 [2-(ethoxycarbonyl)acetyl] |  | 0.39 µg/mL (≈ 1.1 µM)
